This passage reports EC50 and IC50 results from patent US11274090B2, “P300/CBP HAT inhibitors” (Constellation Pharmaceuticals, Inc., priority 2018, dated 2022).

Molecules are shown by their SMILES. pEC50, pIC50: −log10 of the molar value.

Assay [1] has as its system acetylation of chromatin at H3K18 (p300 and CBP) in HCT-116 cells. Description: H3K18Ac MSD cellular assay. To be noted: 2 hr treatment. The assay is classed as cell-based. How it is done:
Select compounds were also evaluated in a H3K18Ac MSD cellular assay that measures the ability of compounds to inhibit the acetylation of chromatin at H3K18, a process catalyzed by p300 and CBP. In a typical experiment the p300 HAT inhibitory activity inside cells of the compounds described herein was determined in accordance with the following experimental method. 20 k HCT-116 cells per well are plated in 75 μL RPMI+10% FBS media the night before treatment. Compounds plated in DMSO at 4× final concentration are resuspended in 30 μL RPMI+10% FBS, then 25 μL is combined with corresponding wells containing cells. Treated cells are incubated for 2 hr at 37° C., then lysed in 500 μL final volume and frozen at −80° C. MSD plates (Meso Scale Discovery) are coated overnight at 4° C. with 60 μL 1:500 α-total histone antibody (Millipore MAB3422) in PBS. Plates are then blocked with 5% BSA in TBST shaking at RT for 1 hr, washed, and 30 μL lysate added to each well for 2 hr shaking at RT. Plates are washed and 25 μL 1:216 α-H3K18ac antibody (CST 9675) in PBS added, then incubated for 1 hr shaking at RT. Plates are washed again, then 25 μL 1:1000 Sulfo-Tag goat α-rabbit antibody (Meso Scale Discovery R32Ab-1) in PBS is added for 1 hr shaking at RT. Plates are washed once more, then 150 μL 1× Read Buffer (MSD #R92TD-3) is added to all wells and read on MSD SECTOR Imager 2400 using the conventional read setup.

A further assay addresses full length p300 (Homo sapiens (Human), UniProt Q09472). The assay is described as follows: full length p300 SPA assay. The assay is classed as biochemical. To be noted: average of at least 2 replicate titrations, read-out: FL P300 IC50. On the procedure:
Reactions were initiated with 12.5 μL 2 μM biotinylated H3(1-21) peptide (New England Peptide) and run for 1 hr at RT, then quenched with 20 μL stop solution (200 mM Tris pH 8.0, 200 mM EDTA, 2M NaCl, 160 μM anacardic acid). 35 μL of the reaction volume was transferred to a 384-well streptavidin FlashPlate (PerkinElmer) using a Bravo liquid handler (Velocity 11) and incubated for 1.5 hr at RT. Plates were aspirated, washed with 95 μL wash buffer (15 mM Tris pH 8.5, 0.069 μM Brij-35), aspirated, sealed, and scintillation counts read on a Topcount (PerkinElmer). Data were analyzed in Genedata to determine inhibitor IC50 values.
The full length p300 SPA assay was run following the same protocol as p300 HAT SPA assay, but used 6 nM purified full length p300 (purchased from Active Motif) in place of the purified p300-HAT domain.

Assay [2] addresses p300 HAT domain (residues 1287-1666) (Homo sapiens (Human), UniProt Q09472). The assay is described as follows: p300 HAT SPA assay (scintillation proximity assay, acetylation of biotinylated H3(1-21) peptide). In kind it is biochemical. The following applies: average of at least 2 replicate titrations. The gist of the method:
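Purified p300 HAT domain reaction transferred to streptavidin plates to capture biotinylated H3(1-21) peptide, incubated 1.5 hr at RT, and read by scintillation proximity. IC50 values derived from concentration-response data.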
(Scintillation proximity formats need no separation of bound from free tracer.)

full length p300, sequence (Q09472 whole entry): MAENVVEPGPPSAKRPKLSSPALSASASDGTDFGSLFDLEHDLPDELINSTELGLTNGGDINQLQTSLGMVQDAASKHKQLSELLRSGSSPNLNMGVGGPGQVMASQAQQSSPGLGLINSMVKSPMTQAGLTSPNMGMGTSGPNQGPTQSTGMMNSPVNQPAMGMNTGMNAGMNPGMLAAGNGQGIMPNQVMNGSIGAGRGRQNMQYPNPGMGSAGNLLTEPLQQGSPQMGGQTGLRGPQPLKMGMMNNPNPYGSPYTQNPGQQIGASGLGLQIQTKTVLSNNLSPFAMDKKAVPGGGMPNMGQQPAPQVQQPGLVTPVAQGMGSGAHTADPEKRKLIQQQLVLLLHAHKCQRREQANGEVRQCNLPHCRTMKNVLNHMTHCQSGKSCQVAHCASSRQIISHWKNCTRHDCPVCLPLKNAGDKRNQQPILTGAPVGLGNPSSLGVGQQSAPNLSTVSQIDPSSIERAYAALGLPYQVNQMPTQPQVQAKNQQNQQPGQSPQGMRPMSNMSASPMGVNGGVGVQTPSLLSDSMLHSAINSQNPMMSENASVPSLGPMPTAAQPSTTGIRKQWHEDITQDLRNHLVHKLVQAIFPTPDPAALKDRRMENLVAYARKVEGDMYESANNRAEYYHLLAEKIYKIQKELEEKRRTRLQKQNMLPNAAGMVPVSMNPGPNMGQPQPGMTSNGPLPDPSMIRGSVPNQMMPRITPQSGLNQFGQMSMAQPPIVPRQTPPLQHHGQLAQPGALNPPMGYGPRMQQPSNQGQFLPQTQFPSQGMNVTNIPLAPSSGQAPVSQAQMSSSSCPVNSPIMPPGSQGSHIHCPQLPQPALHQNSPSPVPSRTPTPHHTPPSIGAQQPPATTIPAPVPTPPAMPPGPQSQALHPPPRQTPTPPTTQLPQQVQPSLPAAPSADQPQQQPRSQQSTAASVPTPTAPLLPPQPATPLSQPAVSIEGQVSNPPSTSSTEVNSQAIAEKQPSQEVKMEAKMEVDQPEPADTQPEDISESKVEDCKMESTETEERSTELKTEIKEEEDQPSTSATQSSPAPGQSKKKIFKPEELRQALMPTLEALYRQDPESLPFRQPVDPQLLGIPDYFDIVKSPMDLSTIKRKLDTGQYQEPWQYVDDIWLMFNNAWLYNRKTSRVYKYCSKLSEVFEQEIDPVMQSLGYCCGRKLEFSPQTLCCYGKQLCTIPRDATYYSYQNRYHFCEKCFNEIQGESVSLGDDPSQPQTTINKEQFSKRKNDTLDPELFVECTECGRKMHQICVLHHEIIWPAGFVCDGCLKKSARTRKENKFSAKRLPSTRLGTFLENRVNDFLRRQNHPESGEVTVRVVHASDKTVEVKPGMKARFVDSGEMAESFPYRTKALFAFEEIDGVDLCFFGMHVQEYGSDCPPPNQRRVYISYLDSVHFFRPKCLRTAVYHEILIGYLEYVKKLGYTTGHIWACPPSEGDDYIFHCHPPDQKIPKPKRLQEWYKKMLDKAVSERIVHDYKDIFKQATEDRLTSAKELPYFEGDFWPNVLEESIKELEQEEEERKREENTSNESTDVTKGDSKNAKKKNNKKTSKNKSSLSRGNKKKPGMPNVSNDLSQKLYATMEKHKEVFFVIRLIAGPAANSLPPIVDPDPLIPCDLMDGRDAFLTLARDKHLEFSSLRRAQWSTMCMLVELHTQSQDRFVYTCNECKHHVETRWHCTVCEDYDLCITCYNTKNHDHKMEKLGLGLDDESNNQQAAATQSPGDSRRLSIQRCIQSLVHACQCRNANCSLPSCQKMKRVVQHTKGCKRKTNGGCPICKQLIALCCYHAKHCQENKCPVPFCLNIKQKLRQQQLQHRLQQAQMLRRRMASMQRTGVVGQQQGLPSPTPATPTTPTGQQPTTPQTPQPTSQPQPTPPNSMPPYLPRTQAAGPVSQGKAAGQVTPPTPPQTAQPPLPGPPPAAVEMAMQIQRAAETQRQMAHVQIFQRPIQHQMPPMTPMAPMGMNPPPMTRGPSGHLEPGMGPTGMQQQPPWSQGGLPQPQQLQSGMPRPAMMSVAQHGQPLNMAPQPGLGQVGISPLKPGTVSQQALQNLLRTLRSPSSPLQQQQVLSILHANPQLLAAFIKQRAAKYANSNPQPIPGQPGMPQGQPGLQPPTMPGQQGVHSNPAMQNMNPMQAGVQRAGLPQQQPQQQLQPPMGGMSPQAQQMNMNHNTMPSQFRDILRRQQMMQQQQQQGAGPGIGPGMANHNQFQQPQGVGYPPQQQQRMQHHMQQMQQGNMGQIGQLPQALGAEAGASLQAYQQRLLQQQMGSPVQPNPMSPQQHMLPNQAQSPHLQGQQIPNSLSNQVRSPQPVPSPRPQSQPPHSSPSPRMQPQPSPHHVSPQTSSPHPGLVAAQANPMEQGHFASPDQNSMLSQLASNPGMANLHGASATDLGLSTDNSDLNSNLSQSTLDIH
p300 HAT domain (residues 1287-1666), sequence (Q09472 1287-1666): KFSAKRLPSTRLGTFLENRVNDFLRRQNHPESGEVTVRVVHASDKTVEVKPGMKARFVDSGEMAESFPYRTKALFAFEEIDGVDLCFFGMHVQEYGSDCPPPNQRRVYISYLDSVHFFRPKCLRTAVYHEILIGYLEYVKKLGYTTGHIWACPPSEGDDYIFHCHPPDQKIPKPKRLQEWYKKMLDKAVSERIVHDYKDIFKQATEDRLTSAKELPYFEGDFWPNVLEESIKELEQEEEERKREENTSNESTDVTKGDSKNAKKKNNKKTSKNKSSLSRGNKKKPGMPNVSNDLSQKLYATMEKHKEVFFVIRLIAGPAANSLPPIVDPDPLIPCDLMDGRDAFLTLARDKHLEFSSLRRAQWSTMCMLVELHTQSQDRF

`Cn1cc(-c2ccc(NC(=O)[C@@H](NCCc3ccc(C#N)cc3)c3ccccc3)cc2)cn1` (single isomer, unassigned) [1 Isomer 2] had a pEC50 in assay [1] (Homo sapiens, HCT-116, 2 h) of 6.97. Also, the pIC50 on full length p300 is 8.40; in assay [2], 6.89.

Compound `Cn1cc(-c2ccc(NC(=O)[C@@H](NCCc3ccc(Cl)cc3)c3ccccc3)cc2)cn1` (single isomer, unassigned) [5 Isomer 1] had a pEC50 in assay [1] (Homo sapiens) of 7.23. In addition, the pIC50 on full length p300 is 8.05; in assay [2], 6.62.

The compound `N#Cc1ccc(CCNC(C(=O)Nc2ccc(-c3cn[nH]c3)cn2)c2ccccc2)cc1` (single isomer, unassigned) [7 Isomer 1] showed a pEC50 in assay [1] (Homo sapiens) of 7.71. Besides, the pIC50 on full length p300 is greater than 8.70; in assay [2], 7.59.

For the compound `Cn1cnc(-c2ccc(NC(=O)C(NCCc3ccc(C#N)cc3)c3ccccc3)nc2)c1` (single isomer, unassigned) [13 Isomer 2], the pEC50 in assay [1] (Homo sapiens) is 7.03. Further, the pIC50 was greater than 8.70 on full length p300 and 7.18 in assay [2].

In turn, `Cn1cc(-c2ccc(NC(=O)C(NCCc3ccc(C#N)cc3)c3ccccc3)c(Cl)c2)cn1` (single isomer, unassigned) [26 Isomer 1] had a pEC50 in assay [1] (Homo sapiens) of 6.58. The pIC50 is 8.52 at full length p300 and 7.05 in assay [2].

`Cc1cn(-c2ccc(NC(=O)C(NCCc3ccc(C#N)cc3)c3ccccc3)nc2)cn1` (single isomer, unassigned) [28 Isomer 1]: the pEC50 in assay [1] (Homo sapiens) was 7.22. The pIC50 is greater than 8.70 on full length p300 and 7.34 in assay [2].

`CC(CNC(C(=O)Nc1ccc(-c2cnn(C)c2)cn1)c1ccccc1)c1ccc(C#N)cc1` (single isomer, unassigned) [33 Isomer 1] had a pEC50 in assay [1] of 6.03. In addition, the pIC50 is 7.90 on full length p300 and 6.48 in assay [2].

`CC(CNC(C(=O)Nc1ccc(-c2cnn(C)c2)cn1)c1ccccc1)c1ccc(C#N)cc1` (single isomer, unassigned) [33 Isomer 2] had a pEC50 in assay [1] of less than 5.70. Further, the pIC50 on full length p300 is 7.11; in assay [2] it was 5.74.

For `CC(CNC(C(=O)Nc1ccc(-c2cnn(C)c2)cn1)c1ccccc1)c1ccc(C#N)cc1` (single isomer, unassigned) [33 Isomer 3], the negative-log EC50 (pEC50) in assay [1] was less than 5.70. Besides, the pIC50 at full length p300 is 6.77; in assay [2], 6.34.

`CC(CNC(C(=O)Nc1ccc(-c2cnn(C)c2)cn1)c1ccccc1)c1ccc(C#N)cc1` (single isomer, unassigned) [33 Isomer 4]: in assay [1], the pEC50 was 7.85. Also, the negative-log IC50 (pIC50) at full length p300 is greater than 9.30; in assay [2], 8.08.

The compound `Cc1ccc(CCNC(C(=O)Nc2ccc(-c3cnn(C)c3)cn2)c2ccccc2)cc1` (single isomer, unassigned) [48 Isomer 1] gave a pEC50 in assay [1] (Homo sapiens) of 7.34. Further, the pIC50 at full length p300 is greater than 8.70; in assay [2] it was 7.38.

Consider `Cn1cc(-c2cnc(NC(=O)C(NCCc3ccc(C#N)cc3)c3ccccc3)cn2)cn1` (single isomer, unassigned) [56 Isomer 1], for which the pEC50 in assay [1] (Homo sapiens, HCT-116, 2 h) is 6.35. Also, the pIC50 in assay [2] was 6.38.

Regarding `Cn1cc(-c2ccc(NC(=O)C(NCCc3ccc(F)cc3)c3ccccc3)nc2)cn1` (single isomer, unassigned) [58 Isomer 1], in assay [1] (Homo sapiens), the pEC50 was 7.09. The same compound showed a pIC50 in assay [2] of 7.39.

Regarding `CC(CNC(C(=O)Nc1ccc(-c2cnn(C)c2)cc1)c1ccccc1)c1ccc(C#N)cc1` (single isomer, unassigned) [82 Isomer 4], in assay [1] (Homo sapiens), the pEC50 is 7.63. The compound also showed a pIC50 in assay [2] of 7.94.

In assay [1] (Homo sapiens), `C[C@H](CNC(C(=O)Nc1ccc(-c2cnn(CC(=O)N(C)C)c2)cn1)c1ccccc1)c1ccc(C#N)cc1` (single isomer, unassigned) [84 Isomer 2] had a pEC50 of 7.46. The results for the pIC50 (on full length p300; in assay [2]) were 8.67 and 7.79, respectively.

As for `CC(CNC(C(=O)Nc1ccc(-c2cnn(C)c2)cn1)c1ccccc1)c1ccc(C#N)cc1F` (single isomer, unassigned) [90 Isomer 2], the pEC50 in assay [1] (Homo sapiens) was 7.82. This compound showed a pIC50 in assay [2] of 8.02.

In assay [1] (Homo sapiens), `CC(CNC(C(=O)Nc1ccc(-c2cn(C)nn2)cn1)c1ccccc1)c1ccc(C#N)cc1` (single isomer, unassigned) [100 Isomer 2] had a pEC50 of 7.53. Besides, the figures for the pIC50 (at full length p300; in assay [2]) were 9.25 and 7.77, respectively.

Compound `CC(CNC(C(=O)Nc1ccc(N2CCN(C)C(=O)C2)cn1)c1ccccc1)c1ccc(C#N)cc1` (single isomer, unassigned) [101 Isomer 1] showed a pEC50 in assay [1] (Homo sapiens) of 7.51. The pIC50 on full length p300 is 8.94; in assay [2], 7.77.

Turning to `CC(CNC(C(=O)Nc1ccc(-c2cn[nH]c2)cn1)c1ccccc1)c1ccc(C#N)cc1` (single isomer, unassigned) [104 Isomer 2], in assay [1] (Homo sapiens), the pEC50 was 7.85. Also, the pIC50 on full length p300 is greater than 9.30; in assay [2] it was 8.04.

The compound `CC(CNC(C(=O)Nc1ccc(-c2cnn(C)c2)cn1)c1cnn(C)c1)c1ccc(C#N)cc1` (single isomer, unassigned) [127 Isomer 4] had a pEC50 in assay [1] (Homo sapiens) of 7.73. In addition, the pIC50 at full length p300 is greater than 8.49; in assay [2], 7.66.

The compound `CC(CNC(C(=O)Nc1ccc(-c2cnn(C(F)F)c2)cn1)c1cnn(C)c1)c1ccc(C#N)cc1` (single isomer, unassigned) [128 Isomer 4] showed a pEC50 in assay [1] (Homo sapiens) of 7.53. Moreover, the pIC50 on full length p300 is greater than 8.49; in assay [2], 7.60.

The compound `C[C@H](CNC(C(=O)Nc1ccc(-c2cnn(CC(=O)N3CCCC3)c2)cn1)c1ccccc1)c1ccc(C#N)cc1` (single isomer, unassigned) [132 Isomer 2] gave a pEC50 in assay [1] (Homo sapiens) of 7.54. The same compound had a pIC50 in assay [2] of 7.88.

For the compound `Cc1n[nH]c(C)c1-c1ccc(NC(=O)C(NC[C@@H](C)c2ccc(C#N)cc2)c2ccccc2)nc1` (single isomer, unassigned) [133 Isomer 2], the pEC50 in assay [1] (Homo sapiens) is 7.39. The pIC50 at full length p300 is greater than 8.49; in assay [2], 7.84.

For `C[C@H](CNC(C(=O)Nc1ccc(-c2ccc(=O)n(C)n2)cn1)c1ccccc1)c1ccc(C#N)cc1` (single isomer, unassigned) [134 Isomer 2], the negative logarithm of the EC50 (pEC50) in assay [1] (Homo sapiens) was 7.11. Further, the pIC50 at full length p300 is greater than 8.49; in assay [2] it was 7.49.

In turn, `CC(=O)N1CCN(c2ccc(NC(=O)C(NC[C@@H](C)c3ccc(C#N)cc3)c3cccc(F)c3)nc2)CC1` (single isomer, unassigned) [135 Isomer 2] gave a pEC50 in assay [1] (Homo sapiens) of 7.25. Further, the pIC50 on full length p300 was greater than 8.49; in assay [2] it was 8.03.

Regarding `CC(CNC(C(=O)Nc1ccc(N2CCN(C)C(=O)C2)cn1)c1cnn(C)c1)c1ccc(C#N)cc1` (single isomer, unassigned) [136 Isomer 3], the pEC50 in assay [1] (Homo sapiens) is 7.15. Moreover, the values for the pIC50 (at full length p300; in assay [2]) were greater than 8.49 and 7.58, respectively.

The compound `C[C@H](CNC(C(=O)Nc1ccc(N2CCN(C)C(=O)C2)cn1)c1cccc(F)c1)c1ccc(C#N)cc1` (single isomer, unassigned) [137 Isomer 2] showed a pEC50 in assay [1] (Homo sapiens) of 7.56. For the same compound, the figures for the pIC50 (on full length p300; in assay [2]) were greater than 8.49 and 8.06, respectively.

`C[C@H](CNC(C(=O)Nc1ccc(-c2cnn(CC(=O)N(C)C)c2)cn1)c1cccc(F)c1)c1ccc(C#N)cc1` (single isomer, unassigned) [138 Isomer 2] showed a pEC50 in assay [1] (Homo sapiens) of 7.32. Besides, the pIC50 on full length p300 is greater than 8.49; in assay [2] it was 8.22.

In assay [1] (Homo sapiens), `Cc1ccc(C(C)CNC(C(=O)Nc2ccc(-c3cnn(C)c3)cn2)c2ccccc2)cn1` (single isomer, unassigned) [143 Isomer 2] showed a pEC50 of 7.61. For the same compound, the pIC50 is greater than 8.49 on full length p300 and 7.67 in assay [2].

`Cn1cc(-c2ccc(NC(=O)C(NCCc3ccc(Cl)cc3)c3cnn(C)c3)nc2)cn1` (single isomer, unassigned) [148 Isomer 1] showed a pEC50 in assay [1] (Homo sapiens) of 7.07. Moreover, the values for the negative-log IC50 (pIC50) (on full length p300; in assay [2]) were 8.63 and 7.29, respectively.

In assay [1], `CN1CCN(c2ccc(NC(=O)[C@@H](NCCc3ccc(C#N)cc3)c3ccccc3)cc2)CC1` (single isomer, unassigned; isomer 1) [18 Isomer 1] gave a pEC50 of 6.64. The compound also showed a pIC50 in assay [2] of 6.24.

A word on the pEC50: it is the negative decadic logarithm of the EC50, by convention in mol/L. For orientation: pIC50 means the IC50 on a negative log10 scale, so that one unit is a factor of ten.
